Measured values as given in US12091426B2, “Bifunctional degraders of hematopoietic progenitor kinase and therapeutic uses thereof” (Nurix Therapeutics, Inc., priority 2021, dated 2024).

Target: T1, HPK1 (Homo sapiens, UniProt Q92918)
T1 construct: A HiBiT tag was introduced by CRISPR on the N terminus of HPK1 in Jurkat cells; host or cells: Jurkat cells (ATCC TIB-152), monoclonal line with CRISPR knock-in of HiBiT at the endogenous HPK1 locus
Assay: HPK1 Cellular HiBit Degradation Assay
Assay type: cell-based
Details: HiBiT HPK1 Jurkat cells, 24 hrs; for DC50: concentration at which 50% of HPK1 was remaining, read-out: DC50 Category; for Dmax: Jurkat, maximum degradation vs DMSO vehicle control, read-out: Dmax Category
Outline: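 Jurkat cells with CRISPR knock-in N-terminal HiBiT-HPK1 were treated with CTMs (11-point, 3.16-fold, 10 uM to 0.1 nM final) for 24 hrs at 37° C. HiBiT lytic luminescence, with parental Jurkat as background and DMSO as 100%, gave % HPK1 remaining; four-parameter fit yielded DC50 and Dmax (100 minus lowest % remaining).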

T1 sequence (Q92918 whole entry): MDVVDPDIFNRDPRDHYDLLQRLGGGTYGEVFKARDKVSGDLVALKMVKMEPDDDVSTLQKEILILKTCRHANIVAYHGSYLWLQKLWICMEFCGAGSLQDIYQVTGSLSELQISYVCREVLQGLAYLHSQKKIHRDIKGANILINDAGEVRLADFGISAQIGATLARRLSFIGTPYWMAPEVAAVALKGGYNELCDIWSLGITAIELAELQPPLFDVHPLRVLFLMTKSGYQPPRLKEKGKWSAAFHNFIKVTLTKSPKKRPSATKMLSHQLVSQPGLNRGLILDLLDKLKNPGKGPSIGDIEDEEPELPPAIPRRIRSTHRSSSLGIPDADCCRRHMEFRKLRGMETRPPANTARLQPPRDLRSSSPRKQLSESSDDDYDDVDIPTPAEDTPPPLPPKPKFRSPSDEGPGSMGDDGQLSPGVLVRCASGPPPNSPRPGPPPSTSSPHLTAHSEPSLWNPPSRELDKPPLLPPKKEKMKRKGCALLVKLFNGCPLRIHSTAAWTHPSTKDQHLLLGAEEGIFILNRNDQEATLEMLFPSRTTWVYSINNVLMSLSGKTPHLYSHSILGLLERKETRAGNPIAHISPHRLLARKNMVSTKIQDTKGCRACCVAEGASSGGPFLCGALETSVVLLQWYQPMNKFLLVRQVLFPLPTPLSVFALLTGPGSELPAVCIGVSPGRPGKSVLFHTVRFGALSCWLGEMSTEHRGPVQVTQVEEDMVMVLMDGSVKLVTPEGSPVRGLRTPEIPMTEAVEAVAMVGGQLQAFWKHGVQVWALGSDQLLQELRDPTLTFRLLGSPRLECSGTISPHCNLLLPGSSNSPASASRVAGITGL

DC50 | Dmax | Structure (SMILES)
< 100 nM | 50 to 70% | CC(C)n1cnc2cc(-c3ccc4c(c3)N([C@H]3C[C@@H](N5CCCCC5)C3)C(=O)C43CCN(C(=O)C4CCN(C(=O)[C@H]5CC[C@H](Oc6ccc(C7CCC(=O)NC7=O)cc6)CC5)CC4)CC3)nc(NC3CC3)c21 (mixture of isomers) [Example 59, (3RS)-3-(4-{[(1R,4R)-4-[4-({6-[4-(cyclopropylamino)-3-(propan-2-yl)-3H-imidazo[4,5-c]pyridin-6-yl]-2-oxo-1-[(1S,3S)-3-(piperidin-1-yl)cyclobutyl]-1,2-dihydrospiro[indole-3,4′-piperidin]-1′-yl}carbonyl)piperidine-1-carbonyl]cyclohexyl]oxy}phenyl)piperidine-2,6-dione]
< 100 nM | 70 to 85% | CC(C)n1cnc2cc(-c3ccc4c(c3)N([C@H]3C[C@@H](N5CCCCC5)C3)C(=O)C43CCN(C(=O)C4CN(C(=O)C5CCN(c6ccc(C7CCC(=O)NC7=O)cn6)CC5)CC(C)(C)C4)CC3)nc(NC3CC3)c21 (mixture of isomers) [Example 250, (3RS)-3-(6-{4-[5-({6-[4-(cyclopropylamino)-3-(propan-2-yl)-3H-imidazo[4,5-c]pyridin-6-yl]-2-oxo-1-[(1S,3S)-3-(piperidin-1-yl)cyclobutyl]-1,2-dihydrospiro[indole-3,4′-piperidin]-1′-yl}carbonyl)-3,3-dimethylpiperidine-1-carbonyl]piperidin-1-yl}pyridin-3-yl)piperidine-2,6-dione]
100 to 500 nM | 70 to 85% | CC(C)n1cnc2cc(-c3ccc4c(c3)N([C@H]3C[C@@H](N5CCCCC5)C3)C(=O)C43CCN(C(=O)c4ccc(C(=O)N5CCN(c6ccc7c(c6)C(=O)N(C6CCC(=O)NC6=O)C7=O)CC5)nc4)CC3)nc(Nc3ccccc3F)c21 (mixture of isomers) [Example 45, 2-[(3RS)-2,6-dioxopiperidin-3-yl]-5-(4-{5-[(6-{4-[(2-fluorophenyl)amino]-3-(propan-2-yl)-3H-imidazo[4,5-c]pyridin-6-yl}-2-oxo-1-[(1S,3S)-3-(piperidin-1-yl)cyclobutyl]-1,2-dihydrospiro[indole-3,4′-piperidin]-1′-yl)carbonyl]pyridine-2-carbonyl}piperazin-1-yl)-2,3-dihydro-1H-isoindole-1,3-dione]
500 to 1000 nM | 50 to 70% | CC(C)n1cnc2cc(-c3ccc4c(c3)N([C@H]3C[C@@H](N5CCCCC5)C3)C(=O)C43CCN(C(=O)c4ccc(C(=O)NC5CCN(c6ccc7c(c6)C(=O)N(C6CCC(=O)NC6=O)C7=O)CC5)cc4)CC3)nc(NC3CC3)c21 (mixture of isomers) [Example 43, 4-({6-[4-(cyclopropylamino)-3-(propan-2-yl)-3H-imidazo[4,5-c]pyridin-6-yl]-2-oxo-1-[(1S,3S)-3-(piperidin-1-yl)cyclobutyl]-1,2-dihydrospiro[indole-3,4′-piperidin]-1′-yl}carbonyl)-N-(1-{2-[(3RS)-2,6-dioxopiperidin-3-yl]-1,3-dioxo-2,3-dihydro-1H-isoindol-5-yl}piperidin-4-yl)benzamide]
100 to 500 nM | 70 to 85% | CC(C)n1cnc2cc(-c3ccc4c(c3)N([C@H]3C[C@@H](N5CCCCC5)C3)C(=O)C43CCN(C(=O)[C@@H]4CCN(C(=O)[C@H]5CC[C@H](Oc6ccc(C7CCC(=O)NC7=O)cn6)CC5)C4)CC3)nc(Nc3ccncc3F)c21 (mixture of isomers) [Example 18, (3RS)-3-(6-{[(1R,4R)-4-[(3R)-3-[(6-{4-[(3-fluoropyridin-4-yl)amino]-3-(propan-2-yl)-3H-imidazo[4,5-c]pyridin-6-yl}-2-oxo-1-[(1S,3S)-3-(piperidin-1-yl)cyclobutyl]-1,2-dihydrospiro[indole-3,4′-piperidin]-1′-yl)carbonyl]pyrrolidine-1-carbonyl]cyclohexyl]oxy}pyridin-3-yl)piperidine-2,6-dione]
< 100 nM | 50 to 70% | CC(C)n1cnc2cc(-c3ccc4c(c3)N([C@H]3C[C@@H](N5CCCCC5)C3)C(=O)C43CCN(C(=O)[C@H]4CC[C@@H](C(=O)N5CCC(Nc6ccc(C7CCC(=O)NC7=O)cn6)CC5)CC4)CC3)nc(NC3CC3)c21 (mixture of isomers) [Example 29, (3RS)-3-[6-({1-[(1S,4S)-4-({6-[4-(cyclopropylamino)-3-(propan-2-yl)-3H-imidazo[4,5-c]pyridin-6-yl]-2-oxo-1-[(1S,3S)-3-(piperidin-1-yl)cyclobutyl]-1,2-dihydrospiro[indole-3,4′-piperidin]-1′-yl}carbonyl)cyclohexanecarbonyl]piperidin-4-yl}amino)pyridin-3-yl]piperidine-2,6-dione]
< 100 nM | 50 to 70% | CC(C)n1cnc2cc(-c3ccc4c(c3)N([C@H]3C[C@@H](N5CCCCC5)C3)C(=O)C43CCN(C(=O)C4CCN(C(=O)[C@H]5CC[C@H](N(C)c6ccc(C7CCC(=O)NC7=O)cn6)CC5)CC4)CC3)nc(NC3CC3)c21 (mixture of isomers) [Example 130, (3RS)-3-(6-{methyl[(1R,4R)-4-[4-({6-[4-(cyclopropylamino)-3-(propan-2-yl)-3H-imidazo[4,5-c]pyridin-6-yl]-2-oxo-1-[(1S,3S)-3-(piperidin-1-yl)cyclobutyl]-1,2-dihydrospiro[indole-3,4′-piperidin]-1′-yl}carbonyl)piperidine-1-carbonyl]cyclohexyl]amino}pyridin-3-yl)piperidine-2,6-dione]
100 to 500 nM | 50 to 70% | CC(C)n1cnc2cc(-c3ccc4c(c3)N([C@H]3C[C@@H](N5CCCCC5)C3)C(=O)C43CCN(C(=O)[C@H]4CC[C@@H](C(=O)N5CCC(N(C)c6ccc(C7CCC(=O)NC7=O)cc6)CC5)CC4)CC3)nc(NC3CC3)c21 (mixture of isomers) [Example 228, (3RS)-3-{4-[methyl({1-[(1S,4S)-4-({6-[4-(cyclopropylamino)-3-(propan-2-yl)-3H-imidazo[4,5-c]pyridin-6-yl]-2-oxo-1-[(1S,3S)-3-(piperidin-1-yl)cyclobutyl]-1,2-dihydrospiro[indole-3,4′-piperidin]-1′-yl}carbonyl)cyclohexanecarbonyl]piperidin-4-yl})amino]phenyl}piperidine-2,6-dione]
< 100 nM | 70 to 85% | CC(C)n1cnc2cc(-c3ccc4c(c3)N([C@H]3C[C@@H](N5CCCCC5)C3)C(=O)C43CCN(C(=O)[C@H]4CCN(C(=O)C5CCN(c6ccc(C7CCC(=O)NC7=O)cn6)CC5)C4)CC3)nc(Nc3ccccc3F)c21 (mixture of isomers) [Example 33, (3RS)-3-(6-{4-[(3S)-3-[(6-{4-[(2-fluorophenyl)amino]-3-(propan-2-yl)-3H-imidazo[4,5-c]pyridin-6-yl}-2-oxo-1-[(1S,3S)-3-(piperidin-1-yl)cyclobutyl]-1,2-dihydrospiro[indole-3,4′-piperidin]-1′-yl)carbonyl]pyrrolidine-1-carbonyl]piperidin-1-yl}pyridin-3-yl)piperidine-2,6-dione]
100 to 500 nM | 50 to 70% | CC(C)n1cnc2cc(-c3ccc4c(c3)N([C@H]3C[C@@H](N5CCCCC5)C3)C(=O)C43CCN(C(=O)C4(C)CCN(C(=O)C[C@H]5CCN(c6ccc(C7CCC(=O)NC7=O)cn6)C5)CC4)CC3)nc(NC3CC3)c21 (stereo partly drawn) [Example 154, 3-{6-[(3R)-3-{2-[4-({6-[4-(cyclopropylamino)-3-isopropylimidazo[4,5-c]pyridin-6-yl]-2-oxo-1-[(1S,3S)-3-(piperidin-1-yl)cyclobutyl]spiro[indole-3,4′-piperidin]-1′-yl}carbonyl)-4-methylpiperidin-1-yl]-2-oxoethyl}pyrrolidin-1-yl]pyridin-3-yl}piperidine-2,6-dione]
< 100 nM | 70 to 85% | CC(C)n1cnc2cc(-c3ccc4c(c3)N([C@H]3C[C@@H](N5CCCCC5)C3)C(=O)C43CCN(C(=O)[C@@H]4[C@H]5CCN(C(=O)C6CCN(c7ccc(C8CCC(=O)NC8=O)cn7)CC6)[C@H]54)CC3)nc(Nc3ccccc3F)c21 (mixture of isomers) [Example 266, (3RS)-3-(6-{4-[(1R,5R,6R)-6-[(6-{4-[(2-fluorophenyl)amino]-3-(propan-2-yl)-3H-imidazo[4,5-c]pyridin-6-yl}-2-oxo-1-[(1S,3S)-3-(piperidin-1-yl)cyclobutyl]-1,2-dihydrospiro[indole-3,4′-piperidin]-1′-yl)carbonyl]-2-azabicyclo[3.1.0]hexane-2-carbonyl]piperidin-1-yl}pyridin-3-yl)piperidine-2,6-dione]

Structure (SMILES) | DC50 | Dmax
CC(C)n1cnc2cc(-c3ccc4c(c3)N([C@H]3C[C@@H](N5CCCCC5)C3)C(=O)C43CCN(C(=O)C4[C@@H]5C[C@H]4CN(C(=O)CC4CCN(c6ccc(C7CCC(=O)NC7=O)cn6)CC4)C5)CC3)nc(NC3CC3)c21 (stereo partly drawn) [Example 240, 3-(6-(4-(2-((1R,5S,6S)-6-(6-(4-(cyclopropylamino)-3-isopropyl-3H-imidazo[4,5-c]pyridin-6-yl)-2-oxo-1-((1S,3S)-3-(piperidin-1-yl)cyclobutyl)spiro[indoline-3,4′-piperidine]-1′-carbonyl)-3-azabicyclo[3.1.1]heptan-3-yl)-2-oxoethyl)piperidin-1-yl)pyridin-3-yl)piperidine-2,6-dione] | < 100 nM | > 85%
CC(C)n1cnc2cc(-c3ccc4c(c3)N([C@H]3C[C@@H](N5CCCCC5)C3)C(=O)C43CCN(C(=O)C4(C)CCN(C(=O)C5CCN(c6ccc(C7CCC(=O)NC7=O)cn6)CC5)CC4)CC3)nc(NC3CC3)c21 (mixture of isomers) [Example 113, (3RS)-3-(6-{4-[4-({6-[4-(cyclopropylamino)-3-(propan-2-yl)-3H-imidazo[4,5-c]pyridin-6-yl]-2-oxo-1-[(1S,3S)-3-(piperidin-1-yl)cyclobutyl]-1,2-dihydrospiro[indole-3,4′-piperidin]-1′-yl}carbonyl)-4-methylpiperidine-1-carbonyl]piperidin-1-yl}pyridin-3-yl)piperidine-2,6-dione] | < 100 nM | 70 to 85%
